According to patent publication US20090306149A1, “USE OF BIARYLCARBOXAMIES IN THE TREATMENT OF HEDGEHOG PATHWAY-RELATED DISORDERS” (priority 2006, published 2009):
Like-named read-outs stand apart in the source and are kept apart here.

How the values were obtained:
Smoothened = Smoothened (Homo sapiens, UniProt Q99835); test: Smo binding assay, displacement of a small molecule agonist of Smoothened, filter binding format
Text: A Smo binding assay was developed using radio-labeled smoothened agonist for compound competition.
Table 1, infra; lists the IC50 for displacement of a small molecule agonist of Smoothened determined in a filter binding format.

[1] = tested on: gli-luciferase activity (Hh pathway) in TMHh12 cells; test: "IC50 shift" gli-luciferase reporter assay in TMHh12 cells with a small molecule Smo agonist; format: cell-based, mouse
Procedure: TM3 cells (mouse) transfected with a new proprietary reporter construct (pTA-8xGli-Luc). The pTA-8xGli-Luc reporter produces approx. 4 fold more luciferase activity than classical 8xGli-LUC. A highly responsive stable clone has been selected (TMHh12) with >10-fold signal/noise ratio and <10% CV in 384 well format.
“IC50 shift” assays in TMHh12 cells. IC50 for antagonism of gli-luciferase activity was tested in the presence of increasing concentrations of a small molecule agonist which binds to Smo with 1 nM affinity and activates the Hh pathway.
Table 1 lists the IC50 of antagonists determined in the presence of different (1 nM and 25 nM) concentrations of a small agonist of Smoothened.

[2] = Mus musculus, TMHh12, TMHh12 cells, 1 nM small molecule Smo agonist, read-out: Gli_luc (1 nM Smo agonist) IC50
[3] = Mus musculus, TMHh12, TMHh12 cells, 25 nM small molecule Smo agonist, read-out: Gli_luc (25 nM Smo agonist) IC50

Chain of Smoothened (Q99835 28-787): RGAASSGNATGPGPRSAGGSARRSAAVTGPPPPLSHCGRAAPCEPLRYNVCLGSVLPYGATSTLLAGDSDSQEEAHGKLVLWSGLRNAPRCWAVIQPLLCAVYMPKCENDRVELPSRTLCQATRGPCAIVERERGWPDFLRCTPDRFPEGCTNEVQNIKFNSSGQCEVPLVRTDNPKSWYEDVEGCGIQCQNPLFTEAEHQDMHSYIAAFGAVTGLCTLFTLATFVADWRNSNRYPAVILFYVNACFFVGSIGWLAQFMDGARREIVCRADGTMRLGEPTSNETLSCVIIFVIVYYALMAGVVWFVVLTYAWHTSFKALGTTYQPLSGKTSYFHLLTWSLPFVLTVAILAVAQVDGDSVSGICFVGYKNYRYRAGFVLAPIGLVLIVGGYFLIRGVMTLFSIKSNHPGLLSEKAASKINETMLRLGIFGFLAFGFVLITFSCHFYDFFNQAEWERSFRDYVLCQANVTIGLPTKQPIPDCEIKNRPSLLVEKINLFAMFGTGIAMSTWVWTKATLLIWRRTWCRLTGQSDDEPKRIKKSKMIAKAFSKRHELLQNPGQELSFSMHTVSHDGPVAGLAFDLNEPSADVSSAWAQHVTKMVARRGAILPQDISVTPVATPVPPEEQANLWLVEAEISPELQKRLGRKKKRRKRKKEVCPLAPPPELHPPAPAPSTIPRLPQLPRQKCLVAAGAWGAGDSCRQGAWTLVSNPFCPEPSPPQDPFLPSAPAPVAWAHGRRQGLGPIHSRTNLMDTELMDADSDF

SMILES | IC50 (Smoothened) [nM] | IC50 [1, 2] [nM] | IC50 [1, 3] [nM] | IC50 ([1]; TMHh12 cells, 1 nM small molecule Smo agonist, read-out: Gli_luc (1 nM Smo agonist) IC50) [nM] | IC50 ([1]; TMHh12 cells, 25 nM small molecule Smo agonist, read-out: Gli_luc (25 nM Smo agonist) IC50) [nM]
Cc1csc(CN[C@H]2Cc3ccc(NC(=O)c4cccc(C)c4-c4ccc(C(F)(F)F)cc4)cc3C2)n1 [Example 5, 6-Methyl-4′-trifluoromethyl-biphenyl-2-carboxylic acid {(S)-2-[(4-methyl-thiazol-2-ylmethyl)-amino]-indan-5-yl}-amide] | 3 | < 5 | 139 | – | –
Cc1cccc(C(=O)Nc2ccc3c(c2)C[C@@H](NCc2cccs2)C3)c1-c1ccc(C(F)(F)F)cc1 [Example 7] | 14 | < 5 | 141 | – | –
Cc1nc(CN[C@H]2Cc3ccc(NC(=O)c4cccc(C)c4-c4ccc(C(F)(F)F)cc4)cc3C2)cs1 [Example 9] | – | 39 | 876 | – | –
Cc1cccc(C(=O)Nc2ccc3c(c2)C[C@@H](NCc2scnc2C)C3)c1-c1ccc(C(F)(F)F)cc1 [Example 10] | 137 | 290 | 1340 | – | –
Cc1cccc(C(=O)Nc2ccc3c(c2)C[C@@H](NCc2ccco2)C3)c1-c1ccc(C(F)(F)F)cc1 [Example 11] | 14 | < 5 | 371 | – | –
Cc1ccc(CN[C@H]2Cc3ccc(NC(=O)c4cccc(C)c4-c4ccc(C(F)(F)F)cc4)cc3C2)o1 [Example 12] | 4 | < 5 | 141 | – | –
Cc1cccc(C(=O)Nc2ccc3c(c2)C[C@@H](NCc2ccc(Cl)o2)C3)c1-c1ccc(C(F)(F)F)cc1 [Example 14] | 1 | < 5 | 37 | – | –
Cc1cccc(C(=O)Nc2ccc3c(c2)C[C@@H](NCc2cncn2C)C3)c1-c1ccc(C(F)(F)F)cc1 [Example 16] | – | 592 | 3700 | – | –
Cc1cccc(C(=O)Nc2ccc3c(c2)C[C@@H](NCc2ncc[nH]2)C3)c1-c1ccc(C(F)(F)F)cc1 [Example 17] | – | 1370 | 15500 | – | –
Cc1cccc(C(=O)Nc2ccc3c(c2)C[C@@H](NCc2nccn2C)C3)c1-c1ccc(C(F)(F)F)cc1 [Example 18] | – | 39 | 876 | – | –
Cc1cccc(C(=O)Nc2ccc3c(c2)C[C@H](NCc2ccccc2)C3)c1-c1ccc(C(F)(F)F)cc1 [Example 27] | – | 12 | 605 | – | –
Cc1cccc(C(=O)Nc2ccc3c(c2)C[C@@H](NCC2CCOC2)C3)c1-c1ccc(C(F)(F)F)cc1 (stereo partly shown) [Example 33] | – | 4530 | 16400 | – | –
Cc1cc(C)c(-c2ccc(C(F)(F)F)cc2)c(C(=O)Nc2ccc3c(c2)CC(NCc2ccsc2)C3)c1 (stereo not shown) [Example 35] | 208 | – | – | – | –
O=C(Nc1ccc2c(c1)CC(NCc1ccccn1)C2)c1cccc(C(F)(F)F)c1-c1ccc(C(F)(F)F)cc1 (stereo not shown) [Example 37] | – | 2980 | 11000 | – | –
O=C(Nc1ccc2c(c1)CCC2NCc1cccs1)c1ccccc1-c1ccc(C(F)(F)F)cc1 (stereo not shown) [Example 39] | – | 686 | 3720 | – | –
COC(=O)C1(CNC2Cc3ccc(NC(=O)c4ccccc4-c4ccc(C(F)(F)F)cc4)cc3C2)CCCC1 (stereo not shown) [Example 42] | – | 2580 | – | – | –
O=C(Nc1ccc2c(c1)C[C@@H](NCc1ccccn1)C2)c1cccc(C(F)(F)F)c1-c1ccc(C(F)(F)F)cc1 [Example 46] | – | 831 | 3850 | – | –
O=C(Nc1ccc2c(c1)CC(NCc1ccccn1)C2)c1cccc(C(F)(F)F)c1-c1ccc(C(F)(F)F)cc1 (stereo not shown) [Example 47] | – | – | – | 1570 | 5960
Cc1cccc(C(=O)Nc2ccc3c(c2)CC(NCc2cccs2)C3)c1-c1ccc(C(F)(F)F)cc1 (stereo not shown) [Example 52] | – | 40 | 598 | – | –
Cc1cccc(C(=O)Nc2ccc3c(c2)CC(NCc2ccccc2)C3)c1-c1ccc(C(F)(F)F)cc1 (stereo not shown) [Example 55] | – | 91 | 995 | – | –
Cc1cccc(C(=O)Nc2ccc3c(c2)CC(NCc2nccs2)C3)c1-c1ccc(C(F)(F)F)cc1 (stereo not shown) [Example 72] | – | 38 | 667 | – | –
Cc1cccc(C(=O)Nc2ccc3c(c2)CC(NC(=O)c2ccccc2)C3)c1-c1ccc(C(F)(F)F)cc1 (stereo not shown) [Example 76] | – | 772 | 1250 | – | –

SMILES | IC50 (Smoothened) [nM] | IC50 [1, 2] [nM] | IC50 [1, 3] [nM] | IC50 ([1]; TMHh12 cells, 1 nM small molecule Smo agonist, read-out: Gli_luc (1 nM Smo agonist) IC50) [nM] | IC50 ([1]; TMHh12 cells, 25 nM small molecule Smo agonist, read-out: Gli_luc (25 nM Smo agonist) IC50) [nM]
CN(C)CC(=O)NC1Cc2ccc(NC(=O)c3ccccc3-c3ccc(C(F)(F)F)cc3)cc2C1 (stereo not shown) [Example 77] | – | 1410 | 12400 | – | –
O=C(COc1ccccc1)NC1Cc2ccc(NC(=O)c3ccccc3-c3ccc(C(F)(F)F)cc3)cc2C1 (stereo not shown) [Example 78] | – | 1890 | – | – | –
COc1cccc(C(=O)Nc2ccc3c(c2)CC(NC(=O)c2ccccc2)C3)c1-c1ccc(C(F)(F)F)cc1 (stereo not shown) [Example 79] | – | 1330 | – | – | –
Cc1cccc(C(=O)Nc2ccc3c(c2)C[C@H](NC(=O)c2ccno2)C3)c1-c1ccc(C(F)(F)F)cc1 [Example 80] | – | 3270 | – | – | –
CCOC(=O)NC1Cc2ccc(NC(=O)c3ccccc3-c3ccc(C(F)(F)F)cc3)cc2C1 (stereo not shown) [Example 81] | – | 1330 | – | – | –
CCOC(=O)N[C@H]1Cc2ccc(NC(=O)c3cccc(C)c3-c3ccc(C(F)(F)F)cc3)cc2C1 [Example 82] | – | 1510 | 9030 | – | –
CCOC(=O)NC1Cc2ccc(NC(=O)c3cccc(OC)c3-c3ccc(C(F)(F)F)cc3)cc2C1 (stereo not shown) [Example 83] | – | 715 | 9730 | – | –
Cc1cccc(C(=O)Nc2ccc3c(c2)CC(NS(=O)(=O)c2ccc(Cl)s2)C3)c1-c1ccc(C(F)(F)F)cc1 (stereo not shown) [Example 85] | 12 | – | – | – | –
CCCCS(=O)(=O)NC1Cc2ccc(NC(=O)c3cccc(C)c3-c3ccc(C(F)(F)F)cc3)cc2C1 (stereo not shown) [Example 86] | 265 | – | – | – | –
O=C(Nc1ccc2c(c1)CC(NS(=O)(=O)NC1CCCCC1)C2)c1ccccc1-c1ccc(C(F)(F)F)cc1 (stereo not shown) [Example 87] | – | 2070 | 2580 | – | –
O=C(Nc1ccc2c(c1)C[C@H](NS(=O)(=O)c1ccccc1)C2)c1ccccc1-c1ccc(C(F)(F)F)cc1 [Example 89] | – | 202 | – | – | –
O=C(Nc1ccc2c(c1)CC(NS(=O)(=O)c1cccs1)C2)c1ccc(F)cc1-c1ccc(C(F)(F)F)cc1 (stereo not shown) [Example 90] | – | 5440 | – | – | –
O=C(Nc1ccc2c(c1)CC(NS(=O)(=O)c1cccs1)C2)c1cccc(F)c1-c1ccc(C(F)(F)F)cc1 (stereo not shown) [Example 91] | – | 59 | 16300 | – | –
CCCS(=O)(=O)NC1Cc2ccc(NC(=O)c3cccc(C)c3-c3ccc(C(F)(F)F)cc3)cc2C1 (stereo not shown) [Example 93] | – | 3390 | – | – | –
Cc1cccc(C(=O)Nc2ccc3c(c2)CC(NS(=O)(=O)c2cccs2)C3)c1-c1ccc(F)cc1 (stereo not shown) [Example 94] | – | 6630 | – | – | –
Cc1cccc(C(=O)Nc2ccc3c(c2)CC(NS(=O)(=O)c2cccs2)C3)c1-c1ccc(C(F)(F)F)cc1 (stereo not shown) [Example 95] | – | 1420 | – | – | –
O=C(Nc1ccc2c(c1)CC(NS(=O)(=O)c1ccccc1)C2)c1ccccc1-c1ccc(Cl)cc1 (stereo not shown) [Example 96] | – | 1480 | – | – | –
O=C(Nc1ccc2c(c1)CC(NS(=O)(=O)c1cccs1)C2)c1c(F)cccc1-c1ccc(C(F)(F)F)cc1 (stereo not shown) [Example 97] | – | 1360 | – | – | –
Cc1cccc(C(=O)Nc2ccc3c(c2)CC(NS(=O)(=O)c2ccc(Cl)cc2)C3)c1-c1ccc(C(F)(F)F)cc1 (stereo not shown) [Example 98] | – | 324 | 24400 | – | –
O=C(Nc1ccc2c(c1)CC(NS(=O)(=O)c1ccc(F)cc1)C2)c1ccccc1-c1ccc(C(F)(F)F)cc1 (stereo not shown) [Example 99] | – | 1050 | – | – | –
Cc1cccc(C(=O)Nc2ccc3c(c2)C[C@@H](NS(=O)(=O)c2ccccn2)C3)c1-c1ccc(C(F)(F)F)cc1 [Example 101] | – | 904 | 14100 | – | –
